Source: ChEMBL document CHEMBL3352287, “Cytotoxic resin glycosides from Ipomoea aquatica and their effects on intracellular Ca2+ concentrations” (J Nat Prod, 2014)
Active and inactive are the calls of the source. No cut-off for these calls is given here.

Legend:
[1] = system: HepG2; test: Cytotoxicity against human HepG2 cells after 48 hrs by MTT assay; assay type: functional, cell-based; details: HepG2, 48 h
[2] = Cytotoxicity against human MCF7/ADR cells after 48 hrs by MTT assay; assay type: functional, cell-based; details: NCI/ADR-RES
[3] = Cytotoxicity against human MG63 cells after 48 hrs by MTT assay; assay type: functional, cell-based; details: MG-63, 48 h
[4] = system: SMMC-7721; test: Cytotoxicity against human SMMC7721 cells after 48 hrs by MTT assay; assay type: functional, cell-based; details: SMMC-7721, 48 h
[5] = system: U2OS; test: Cytotoxicity against human U2OS cells after 48 hrs by MTT assay; assay type: functional, cell-based
[6] = system: HepG2; test: Increase in intracellular Ca2+ level in human HepG2 cells assessed as increase in fluorescence intensity at 30 uM after 6 hrs by Fluo-3 AM -based fluorescence assay relative to control; assay type: functional
[7] = system: MCF7; test: Cytotoxicity against human MCF7 cells after 48 hrs by MTT assay; assay type: functional, cell-based; details: MCF7, 48 h
[8] = system: U2OS; test: Cytotoxicity against human U2OS cells at 10 uM after 48 hrs by MTT assay; assay type: functional, cell-based
[9] = system: HepG2; test: Cytotoxicity against human HepG2 cells at 10 uM after 48 hrs by MTT assay; assay type: functional, cell-based
[10] = system: NCI/ADR-RES; test: Cytotoxicity against human MCF7/ADR cells at 10 uM after 48 hrs by MTT assay; assay type: functional, cell-based
[11] = system: MCF7; test: Cytotoxicity against human MCF7 cells at 10 uM after 48 hrs by MTT assay; assay type: functional, cell-based
[12] = system: SMMC-7721; test: Cytotoxicity against human SMMC7721 cells at 10 uM after 48 hrs by MTT assay; assay type: functional, cell-based
[13] = system: MG-63; test: Cytotoxicity against human MG63 cells at 10 uM after 48 hrs by MTT assay; assay type: functional, cell-based
[14] = system: HepG2; test: Cell cycle arrest in human HepG2 cells assessed as increase in G0/G1 phase cells after 48 hrs using propidium iodide by flow cytometry; assay type: functional, cell-based
[15] = system: HepG2; test: Cell cycle arrest in human HepG2 cells assessed as increase in subG1 phase cells at 8 uM after 48 hrs using propidium iodide by flow cytometry; assay type: functional, cell-based

## CCCCCCCC(=O)O[C@@H]1[C@@H](O)[C@@H](O)[C@H](O[C@@H]2[C@@H](O[C@@H]3O[C@@H](C)[C@H](O)[C@@H](O)[C@H]3O)[C@@H](OC(=O)[C@@H](C)CC)[C@H](O[C@@H]3[C@H]4OC(=O)CCCCCCCCC[C@H](CCCCC)O[C@@H]5O[C@H](C)[C@H](O)[C@H](O)[C@H]5O[C@H](O[C@H]3C)[C@@H]4O)O[C@H]2C)O[C@H]1C
[1]
  IC50: 3.7 µM
[2]
  IC50: > 10 µM
[3]; read-out: IC50
  IC50: 7.7 µM
[4]
  IC50: 9.5 µM
[5]
  IC50: 9.4 µM
[6]
  Activity: Active
[7]
  IC50: 4.1 µM

## CCCCCCCCCC(=O)O[C@H]1[C@H](O[C@@H]2[C@H]3OC(=O)CCCCCCCCC[C@H](CCCCC)O[C@@H]4O[C@H](C)[C@H](O)[C@H](O)[C@H]4O[C@H](O[C@H]2C)[C@@H]3O)O[C@@H](C)[C@H](O[C@@H]2O[C@@H](C)[C@H](OC(=O)CCCCCCC)[C@@H](O)[C@H]2O)[C@H]1O[C@@H]1O[C@@H](C)[C@H](O)[C@@H](O)[C@H]1O
[1]
  IC50: 4.9 µM
[2]
  IC50: > 10 µM
[3]; read-out: IC50
  IC50: 6 µM
[4]
  IC50: > 10 µM
[5]
  IC50: > 10 µM
[6]
  Activity: Active
[7]
  IC50: 9.8 µM

## CCCCCCCC(=O)O[C@@H]1[C@@H](O)[C@@H](O)[C@H](O[C@@H]2[C@@H](O[C@@H]3O[C@@H](C)[C@H](O)[C@@H](O)[C@H]3O)[C@@H](OC(=O)CCCCCCC)[C@H](O[C@@H]3[C@H]4OC(=O)CCCCCCCCC[C@H](CCCCC)O[C@@H]5O[C@H](C)[C@H](O)[C@H](O)[C@H]5O[C@H](O[C@H]3C)[C@@H]4O)O[C@H]2C)O[C@H]1C
[1]
  IC50: 5.2 µM
[2]
  IC50: > 10 µM
[3]; read-out: IC50
  IC50: 3.7 µM
[4]
  IC50: 9 µM
[5]
  IC50: 9.6 µM
[6]
  Activity: Active
[7]
  IC50: 5 µM

## CCCCCCCC(=O)O[C@@H]1[C@@H](O)[C@H](C)O[C@@H](O[C@@H]2[C@@H](O[C@@H]3O[C@H](CO)[C@@H](O)[C@H](O)[C@H]3O)[C@@H](OC(=O)CCCCCCC)[C@H](O[C@@H]3[C@H]4OC(=O)CCCCCCCCC[C@H](CCCCC)O[C@@H]5O[C@H](C)[C@H](O)[C@H](O)[C@H]5O[C@H](O[C@H]3C)[C@@H]4O)O[C@H]2C)[C@@H]1O
[8]
  Activity: inactive
[9]
  Activity: inactive
[10]
  Activity: inactive
[11]
  Activity: inactive
[12]
  Activity: inactive
[13]
  Activity: inactive

## CCCCCCCC(=O)O[C@@H]1[C@@H](O)[C@@H](O)[C@H](O[C@@H]2[C@@H](O[C@@H]3O[C@@H](C)[C@H](O)[C@@H](O)[C@H]3O)[C@@H](OC(=O)CCCCC)[C@H](O[C@@H]3[C@H]4OC(=O)CCCCCCCCC[C@H](CCCCC)O[C@@H]5O[C@H](C)[C@H](O)[C@H](O)[C@H]5O[C@H](O[C@H]3C)[C@@H]4O)O[C@H]2C)O[C@H]1C
[1]
  IC50: 2.4 µM
[2]
  IC50: > 10 µM
[14]
  Activity: Dose-dependent effect
[15]
  Activity: Active
[3]; read-out: IC50
  IC50: 5.3 µM
[4]
  IC50: 6.3 µM
[5]
  IC50: 4.5 µM
[6]
  Activity: Active
[7]
  IC50: 4.2 µM

## CCCCCCCC(=O)O[C@@H]1[C@@H](O)[C@@H](O)[C@H](O[C@@H]2[C@@H](O[C@@H]3O[C@H](CO)[C@@H](O)[C@H](O)[C@H]3O)[C@@H](OC(=O)CCCCCCC)[C@H](O[C@@H]3[C@H]4OC(=O)CCCCCCCCC[C@H](CCCCC)O[C@@H]5O[C@H](C)[C@H](O)[C@H](O)[C@H]5O[C@H](O[C@H]3C)[C@@H]4O)O[C@H]2C)O[C@H]1C
[1]
  IC50: 8.5 µM
[2]
  IC50: > 10 µM
[3]; read-out: IC50
  IC50: 5.4 µM
[4]
  IC50: > 10 µM
[5]
  IC50: > 10 µM
[6]
  Activity: >200%
[7]
  IC50: 7.4 µM

## COc1cccc2c1C(=O)c1c(O)c3c(c(O)c1C2=O)C[C@@](O)(C(=O)CO)C[C@@H]3O[C@H]1C[C@H](N)[C@H](O)[C@H](C)O1 [DOXORUBICIN]
[1]
  IC50: 0.36 µM
[3]
  IC50: 0.74 µM
[4]
  IC50: 1.1 µM
[5]
  IC50: 0.65 µM
[7]
  IC50: 0.46 µM
